Drawing on ChEMBL document CHEMBL2029256, “Structure-activity relationships of trimethoxybenzyl piperazine N-type calcium channel inhibitors” (Bioorg Med Chem Lett, 2012), this text covers IC50, inhibition in vivo and Emax for 40 molecules.

Experiment [1] in a line: Inhibition of rat N-type calcium channel alpha1B/alpha2delta-1/beta1b expressed in HEK293 cells by whole cell patch clamp analysis. The class given is cell-based. A general note: Patch clamp records ionic current or voltage across a cell membrane.
In experiment [2] the target is Voltage-gated inwardly rectifying potassium channel KCNH2 (Homo sapiens, UniProt Q12809). The experiment is described as follows: Inhibition of human Erg expressed in HEK293 cells by whole cell patch clamp analysis.
Chain of Voltage-gated inwardly rectifying potassium channel KCNH2 (Q12809 whole entry): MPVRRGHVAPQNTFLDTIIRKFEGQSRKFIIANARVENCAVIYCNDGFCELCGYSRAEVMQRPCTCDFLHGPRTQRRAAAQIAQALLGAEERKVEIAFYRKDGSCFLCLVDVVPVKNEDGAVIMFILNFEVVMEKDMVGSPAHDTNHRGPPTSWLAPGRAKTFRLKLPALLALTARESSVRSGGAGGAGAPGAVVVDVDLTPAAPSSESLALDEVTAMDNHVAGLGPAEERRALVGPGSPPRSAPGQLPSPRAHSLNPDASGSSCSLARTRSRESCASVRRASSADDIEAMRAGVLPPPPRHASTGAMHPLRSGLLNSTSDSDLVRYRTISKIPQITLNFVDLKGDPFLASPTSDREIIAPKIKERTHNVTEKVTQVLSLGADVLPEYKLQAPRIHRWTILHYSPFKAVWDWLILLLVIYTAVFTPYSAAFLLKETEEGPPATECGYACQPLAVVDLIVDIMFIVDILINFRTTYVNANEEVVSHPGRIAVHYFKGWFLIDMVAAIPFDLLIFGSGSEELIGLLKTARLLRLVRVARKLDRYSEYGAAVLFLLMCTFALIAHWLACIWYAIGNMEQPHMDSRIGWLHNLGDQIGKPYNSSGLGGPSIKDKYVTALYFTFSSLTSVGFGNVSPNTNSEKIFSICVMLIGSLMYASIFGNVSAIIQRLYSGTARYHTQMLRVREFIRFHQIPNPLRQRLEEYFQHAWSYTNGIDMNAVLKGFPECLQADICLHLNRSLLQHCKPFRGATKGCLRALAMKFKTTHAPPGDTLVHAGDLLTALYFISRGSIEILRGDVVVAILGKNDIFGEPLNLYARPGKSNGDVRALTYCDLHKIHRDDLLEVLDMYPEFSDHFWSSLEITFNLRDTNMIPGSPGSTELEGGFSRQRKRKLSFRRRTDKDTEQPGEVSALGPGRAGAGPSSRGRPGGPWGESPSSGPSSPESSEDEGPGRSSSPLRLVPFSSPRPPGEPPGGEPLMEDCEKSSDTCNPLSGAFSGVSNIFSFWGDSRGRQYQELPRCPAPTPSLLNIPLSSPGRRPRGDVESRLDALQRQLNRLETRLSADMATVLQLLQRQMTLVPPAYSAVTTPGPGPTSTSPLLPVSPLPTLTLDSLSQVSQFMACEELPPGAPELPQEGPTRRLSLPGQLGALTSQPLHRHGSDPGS
The species named for experiment [3] is Rattus norvegicus. In words: animal or person. As to conditions: ip, read-out: INH.
The subject of experiment [4] is Rattus norvegicus. The experiment is described as follows: Antiallodynic activity in rat chung model of neuropathic pain assessed as paw withdrawal at 30 mg/kg, po measured at 30 mins interval for 3 hrs relative to control.
The test system of experiment [5] is Rattus norvegicus. In words: Antiallodynic activity in rat chung model of neuropathic pain assessed as inhibition of nerve ligation-induced thermal hyperalgesia at 30 mg/kg, po measured at 30 mins interval for 3 hrs relative to control.
Experiment [6] can be described thus: Inhibition of rat L-type calcium channel alpha1C/alpha2delta-1/beta1b expressed in HEK293 cells by whole cell patch clamp analysis. The class given is cell-based.
For experiment [7], the species on record is Rattus norvegicus. The experiment is described as follows: animal or person. Conditions: ip, read-out: INH. This is another data set of the same source.
The species entered for experiment [8] is Rattus norvegicus. In words: animal or person. Conditions: ip, read-out: INH. This is another data set of the same source.

Each structure is given as a SMILES string.

Take `COc1cc(C(=O)NCC2CCN(CCCCCC(c3ccc(F)cc3)c3ccc(F)cc3)C2)cc(OC)c1OC` (stereo not drawn): the IC50 in experiment [1] was 280 nM.
On the same count and under the same terms, in the case of `COc1c(C(C)(C)C)cc(CN2CCN(CCCCCC(c3ccc(F)cc3)c3ccc(F)cc3)CC2)cc1C(C)(C)C` it was 90 nM; in that of `CC(C)(C)c1cc(C(=O)NCC2CCN(C(=O)CCCCC(c3ccc(F)cc3)c3ccc(F)cc3)C2)cc(C(C)(C)C)c1` (stereo not drawn), 110 nM.
For the molecule `CC(C)(C)c1cc(CN2CCN(CCCCCC(c3ccc(F)cc3)c3ccc(F)cc3)CC2)cc(C(C)(C)C)c1O`, the IC50 in experiment [1] is 40 nM; in experiment [2], 100 nM.
On to `O=C(CCCCC(c1ccc(F)cc1)c1ccc(F)cc1)N1CCN(C(=O)c2cc(C(F)(F)F)cc(C(F)(F)F)c2)CC1`, for which, in experiment [1], the half-maximal inhibitory concentration (IC50) was found to be 510 nM.
The same measure, in the same setting: for `O=C(NCC1CCN(CCCCCC(c2ccc(F)cc2)c2ccc(F)cc2)C1)c1cc(C(F)(F)F)cc(C(F)(F)F)c1` (stereo not drawn) the value was 150 nM.
As to `COc1cc(CN2CCC(CNCCCCCC(c3ccc(F)cc3)c3ccc(F)cc3)C2)cc(OC)c1OC` (stereo not drawn), the IC50 was 60 nM in experiment [1] and 100 nM in experiment [2].
For `CC(C)(C)c1cc(C(=O)N2CCN(C(=O)CCCCC(c3ccc(F)cc3)c3ccc(F)cc3)CC2)cc(C(C)(C)C)c1`, in experiment [1], the IC50 was determined as 300 nM.
As to `CN1CCC(C(CCCCC(=O)N2CCC(CNC(=O)c3cc(Cl)cc(Cl)c3)C2)c2ccccc2)CC1` (stereo not drawn), the IC50 in experiment [1] turned out to be 880 nM.
Regarding `COc1c(C)cc(C(=O)NCC2CCN(C(=O)CCCCC(c3ccccc3)C3CCN(C)CC3)C2)cc1C` (stereo not drawn), the IC50 in experiment [1] amounted to 100 nM.
Same read-out and setting: for `O=C(NCC1CCN(C(=O)CCCCC(c2ccc(F)cc2)c2ccc(F)cc2)C1)c1cc(F)cc(C(F)(F)F)c1` (stereo not drawn) the value was 750 nM; for `COc1cc(C(=O)N2CCN(C(=O)CCCCC(c3ccc(F)cc3)c3ccc(F)cc3)CC2)cc(OC)c1O`, 600 nM; for `CC(C)(C)c1cc(CNCC2CCN(CCCCCC(c3ccc(F)cc3)c3ccc(F)cc3)C2)cc(C(C)(C)C)c1O` (stereo not drawn), 50 nM.
On the same count and under the same terms, in the case of `CC(C)(C)c1cc(CN2CCN(C(=O)CCCCC(c3ccc(F)cc3)c3ccc(F)cc3)CC2)cc(C(C)(C)C)c1O` it was 180 nM.
As for `COc1cc(C(=O)N2CCC(CNC(=O)CCCCC(c3ccc(F)cc3)c3ccc(F)cc3)C2)cc(OC)c1OC` (stereo not drawn), the IC50 in experiment [1] amounted to 840 nM; in experiment [2] it was 750 nM.
For `CC(C)(C)c1cc(C(=O)NC[C@@H]2CCN(C(=O)CCCCC(c3ccc(F)cc3)c3ccc(F)cc3)C2)cc(C(C)(C)C)c1`, the IC50 in experiment [1] was found to be 120 nM.
On to `COc1c(C(C)(C)C)cc(C(=O)N2CCN(C(=O)CCCCC(c3ccc(F)cc3)c3ccc(F)cc3)CC2)cc1C(C)(C)C`, for which the IC50 in experiment [1] amounted to 90 nM. The inhibition in vivo at 30 mg/kg in experiment [3] came out at 79%. Besides, the Emax at 30 mg/kg in experiment [4] came out at 1.9%; in experiment [5], 54.2%.
For the molecule `CC(C)(C)c1cc(C(=O)N2CCN(C(=O)CCCCC(c3ccc(F)cc3)c3ccc(F)cc3)CC2)cc(C(C)(C)C)c1O`, the IC50 in experiment [1] amounted to 220 nM.
Same read-out and setting: in the case of `COc1c(C(C)(C)C)cc(C(=O)NCC2CCN(C(=O)CCCCC(c3ccc(F)cc3)c3ccc(F)cc3)C2)cc1C(C)(C)C` (stereo not drawn) it was 40 nM; in that of `O=C(NC[C@@H]1CCN(C(=O)CCCCC(c2ccc(F)cc2)c2ccc(F)cc2)C1)c1cc(C(F)(F)F)cc(C(F)(F)F)c1`, 90 nM.
The same measure, in the same setting: for `CC(C)(C)c1cc(C(=O)N2CCN(CCCCCC(c3ccc(F)cc3)c3ccc(F)cc3)CC2)cc(C(C)(C)C)c1O` the value was 150 nM.
`CC(C)(C)c1cc(CN2CCN(CCCCCC(c3ccc(F)cc3)c3ccc(F)cc3)CC2)cc(C(C)(C)C)c1`: the IC50 in experiment [1] is 140 nM.
For the molecule `COc1cc(C(=O)NCC2CCN(C(=O)CCCCC(c3ccccc3)C3CCN(C)CC3)C2)cc(OC)c1OC` (stereo not drawn), the 50% inhibitory concentration (IC50) in experiment [1] was 3200 nM.
Consider `COc1cc(CN2CCN(CCCCCC(c3ccc(F)cc3)c3ccc(F)cc3)CC2)cc(OC)c1OC`, for which, in experiment [2], half-maximal inhibition (IC50) required 400 nM.
With `COc1c(C(C)(C)C)cc(CN2CCC(CNCCCCCC(c3ccc(F)cc3)c3ccc(F)cc3)C2)cc1C(C)(C)C` (stereo not drawn), in experiment [1], the IC50 turned out to be 32 nM.
The same measure, in the same setting: for `COc1c(C(C)(C)C)cc(C(=O)N2CCC(CNC(=O)CCCCC(c3ccc(F)cc3)c3ccc(F)cc3)C2)cc1C(C)(C)C` (stereo not drawn) the value was 1900 nM.
On to `COc1c(C(C)(C)C)cc(C(=O)N2CCN(C(=O)CCCCC(c3ccc(F)cc3)c3ccc(F)cc3)C[C@@H]2C)cc1C(C)(C)C`, for which the IC50 in experiment [1] was 40 nM; in experiment [6] it was 144000 nM. In addition, the inhibition in vivo at 30 mg/kg in experiment [3] is 79%; in experiment [7], 61%; in experiment [8], 50%. For the same molecule, the Emax at 30 mg/kg is 31.7% in experiment [4] and 85.8% in experiment [5].
Consider `O=C(NC[C@H]1CCN(C(=O)CCCCC(c2ccc(F)cc2)c2ccc(F)cc2)C1)c1cc(C(F)(F)F)cc(C(F)(F)F)c1`, for which the IC50 in experiment [1] came to 100 nM.
Still for that read-out and setting: for `Fc1ccc(C(CCCCCN2CCN(Cc3cc(C(F)(F)F)cc(C(F)(F)F)c3)CC2)c2ccc(F)cc2)cc1` the value was 1100 nM; for `COc1c(C(C)(C)C)cc(C(=O)N2CCN(CCCCCC(c3ccc(F)cc3)c3ccc(F)cc3)CC2)cc1C(C)(C)C`, 110 nM.
As to `COc1cc(CN2CCN(CCCCCC(c3ccc(F)cc3)c3ccc(F)cc3)CC2)cc(OC)c1O`, in experiment [1], the IC50 turned out to be 400 nM.
On the same count and under the same terms, for `COc1c(C(C)C)cc(C(=O)NCC2CCN(C(=O)CCCCC(c3ccccc3)C3CCN(C)CC3)C2)cc1C(C)C` (stereo not drawn) the value was 1900 nM.
`COc1cc(CNCC2CCN(CCCCCC(c3ccc(F)cc3)c3ccc(F)cc3)C2)cc(OC)c1OC` (stereo not drawn): in experiment [1], the IC50 came to 60 nM.
With `CC(C)(C)c1cc(C(=O)NC[C@H]2CCN(C(=O)CCCCC(c3ccc(F)cc3)c3ccc(F)cc3)C2)cc(C(C)(C)C)c1`, the IC50 in experiment [1] amounted to 160 nM.
Same read-out and setting: in the case of `COc1c(C(C)(C)C)cc(C(=O)NC[C@H]2CCN(C(=O)CCCCC(c3ccc(F)cc3)c3ccc(F)cc3)C2)cc1C(C)(C)C` it was 150 nM; in that of `CC(C)(C)c1cc(CN2CCC(CNCCCCCC(c3ccc(F)cc3)c3ccc(F)cc3)C2)cc(C(C)(C)C)c1O` (stereo not drawn), 4 nM.
Regarding `COc1c(C(C)(C)C)cc(CN2CCN(C(=O)CCCCC(c3ccc(F)cc3)c3ccc(F)cc3)CC2)cc1C(C)(C)C`, the 50% inhibitory concentration (IC50) in experiment [1] was 100 nM.
On the same count and under the same terms, for `COc1c(C(C)(C)C)cc(C(=O)N2CCN(C(=O)CCCCC(c3ccc(F)cc3)c3ccc(F)cc3)[C@@H](C)C2)cc1C(C)(C)C` the value was 10 nM; for `O=C(NCC1CCN(C(=O)CCCCC(c2ccc(F)cc2)c2ccc(F)cc2)C1)c1cc(C(F)(F)F)cc(C(F)(F)F)c1` (stereo not drawn), 210 nM.
With `CC(C)(C)c1cc(CNCC2CCN(CCCCCC(c3ccc(F)cc3)c3ccc(F)cc3)C2)cc(C(C)(C)C)c1` (stereo not drawn), the results for the IC50 in experiment [1] and in experiment [2] were 30 nM and 460 nM, respectively.

In general, IC50 refers to the concentration that inhibits the measured activity by half. Broadly, the Emax is the maximal effect, on the per cent scale that the assay sets.
